How the values were obtained:
APOL1 G2 [1] = target: T1, APOL1 G2 (Homo sapiens, UniProt O14791, DEL388-389); experiment: APOL1 G2 FLIPR calcium influx assay (HEK T-REx/GCaMP6f/APOL1 G2 K6.3 cells); assay type: cell-based; conditions: HEK293 clone expressing GCaMP6f, doxycycline-induced APOL1 G2; prevention of calcium influx; geometric mean of at least 2 assay runs
T1 construct: expressed in transfected cells; host or cells: HEK293/T-REx APOL1 G2 clone #2, doxycycline-inducible
T1 sequence (O14791 with tags, fused parts or gaps DEL388-389): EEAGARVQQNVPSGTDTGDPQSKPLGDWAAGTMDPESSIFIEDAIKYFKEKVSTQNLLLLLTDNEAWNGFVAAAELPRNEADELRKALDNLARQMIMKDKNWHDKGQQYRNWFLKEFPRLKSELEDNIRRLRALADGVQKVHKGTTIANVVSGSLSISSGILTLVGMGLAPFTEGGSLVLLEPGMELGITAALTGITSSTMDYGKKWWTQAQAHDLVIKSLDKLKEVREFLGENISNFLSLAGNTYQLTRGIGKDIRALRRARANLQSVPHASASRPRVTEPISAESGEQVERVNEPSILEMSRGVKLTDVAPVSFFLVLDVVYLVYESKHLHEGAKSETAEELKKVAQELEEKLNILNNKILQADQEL
Procedure, shortened: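 Cells express GCaMP6f stably and APOL1 G2 after a 6 h doxycycline induction. Duplicate 8-point dilutions sit 10 min at room temperature in Ca2+-free Tyrode's (pH 7.4), then Ca2+ is injected to 5 mM final and the FLIPR signal recorded. AC50s are geometric means across ≥2 days.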

APOL1 G2 [2] = target: T1, APOL1 G2; experiment: APOL1 G2 HEK293 rescue of cell death caused by overexpression of APOL1 (CellTiter-Glo); assay type: cell-based; conditions: HEK293/T-REx APOL1 G2 clone #2, doxycycline induction, 17 hours, CellTiter-Glo luminescence; reversal of cell death; geometric mean of at least 2 assay runs
Procedure, shortened: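 Viability read by CellTiter-Glo luminescence after 17 h, 37 °C, in HEK293/T-REx cells expressing APOL1 G2 on 6 ng/mL doxycycline, 5,000 cells/well. Compounds tested as duplicate 8-point, 3-fold dilutions, 0.5% DMSO final; four-parameter logistic EC50, usually geometric mean of ≥2 days.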

SMILES	AC50 (APOL1 G2 [1]) [nM]	EC50 (APOL1 G2 [2]) [nM]
CS(=O)(=O)c1ccc(OC[C@H]2CN(CCc3cccc(Cl)c3)C[C@@H]2CO)cc1 [Compound 22, [(3R,4R)-1-[2-(3-chlorophenyl)ethyl]-4-[(4-methanesulfonylphenoxy)methyl]pyrrolidin-3-yl]methanol]	1560	> 18800
Cc1c(C#N)cc(Cl)cc1CCN1C[C@@H](CO)[C@H](COc2ccc(S(C)(=O)=O)cc2)C1 [Compound 23, 5-chloro-3-{2-[(3S,4S)-3-(hydroxymethyl)-4-[(4-methanesulfonylphenoxy)methyl]pyrrolidin-1-yl]ethyl}-2-methylbenzonitrile]	392	309
CS(=O)(=O)c1ccc(OC[C@@H]2CN(CCc3cc(Cl)cc(C#N)c3)C[C@H]2CO)cc1 [Compound 24, 3-chloro-5-{2-[(3S,4S)-3-(hydroxymethyl)-4-[(4-methanesulfonylphenoxy)methyl]pyrrolidin-1-yl]ethyl}benzonitrile]	310	410
CS(=O)(=O)c1ccc(OC[C@@H]2CN(CCc3cccc(C#N)c3)C[C@H]2CO)cc1 [Compound 25, 3-{2-[(3S,4S)-3-(hydroxymethyl)-4-[(4-methanesulfonylphenoxy)methyl]pyrrolidin-1-yl]ethyl}benzonitrile]	343	1010
C[C@@H]1C[C@H](COc2ccc(S(C)(=O)=O)nn2)CN1CCc1cccc(C#N)c1 [Compound 26, 3-{2-[(2R,4S)-4-{[(6-methanesulfonylpyridazin-3-yl)oxy]methyl}-2-methylpyrrolidin-1-yl]ethyl}benzonitrile]	210	276
C[C@@H]1C[C@H](COc2ccc(S(C)(=O)=O)nc2)CN1CCc1cc(C#N)cc(C#N)c1 [Compound 39, 5-{2-[(2R,4S)-4-{[(6-methanesulfonylpyridin-3-yl)oxy]methyl}-2-methylpyrrolidin-1-yl]ethyl}benzene-1,3-dicarbonitrile]	554	121
C[C@@H]1C[C@H](COc2ccc(S(=O)(=O)CCCS(C)(=O)=O)cc2)CN1C1CCc2c(C#N)cccc2C1 (stereo partly drawn) [Compound 40, 6-[(2R,4S)-4-{[4-(3-methanesulfonylpropanesulfonyl)phenoxy]methyl}-2-methylpyrrolidin-1-yl]-5,6,7,8-tetrahydronaphthalene-1-carbonitrile]	534	74.6
C[C@@H]1C[C@H](COc2ccc(S(=O)(=O)CCCS(C)(=O)=O)cc2)CN1C1CCc2c(C#N)cc(Cl)cc2C1 (stereo partly drawn) [Compound 43, 3-chloro-6-[(2R,4S)-4-{[4-(3-methanesulfonylpropanesulfonyl)phenoxy]methyl}-2-methylpyrrolidin-1-yl]-5,6,7,8-tetrahydronaphthalene-1-carbonitrile]	1360	350
C[C@@H]1C[C@H](COc2ccc(S(=O)(=O)CCS(C)(=O)=O)cc2)CN1C1CCc2c(C#N)cc(Cl)cc2C1 (stereo partly drawn) [Compound 46, 3-chloro-6-[(2R,4S)-4-{[4-(2-methanesulfonylethanesulfonyl)phenoxy]methyl}-2-methylpyrrolidin-1-yl]-5,6,7,8-tetrahydronaphthalene-1-carbonitrile]	1610	418
C[C@@H]1C[C@H](COc2ccc(S(=O)(=O)CCS(C)(=O)=O)cc2)CN1C1CCc2ccc(Cl)cc2C1 (stereo partly drawn) [Compound 49, (2R,4S)-1-[7-chloro-1,2,3,4-tetrahydronaphthalen-2-yl]-4-{[4-(2-methanesulfonylethanesulfonyl)phenoxy]methyl}-2-methylpyrrolidine]	558	193
C[C@@H]1C[C@H](COc2ccc(S(=O)(=O)CCCS(C)(=O)=O)cc2)CN1C1CCc2ccc(Cl)cc2C1 (stereo partly drawn) [Compound 52, (2R,4S)-1-[7-chloro-1,2,3,4-tetrahydronaphthalen-2-yl]-4-{[4-(3-methanesulfonylpropanesulfonyl)phenoxy]methyl}-2-methylpyrrolidine]	1020	86.9
C[C@@H]1C[C@H](COc2ccc(S(=O)(=O)CCO)cc2)CN1C1CCc2c(C#N)cc(Cl)cc2C1 (stereo partly drawn) [Compound 55, 3-chloro-6-[(2R,4S)-4-{[4-(2-hydroxyethanesulfonyl)phenoxy]methyl}-2-methylpyrrolidin-1-yl]-5,6,7,8-tetrahydronaphthalene-1-carbonitrile]	876	240
C[C@@H]1C[C@H](COc2ccc(S(=O)(=O)CCO)cc2)CN1C1CCc2ccc(C#N)cc2C1 (stereo partly drawn) [Compound 58, 7-[(2R,4S)-4-{[4-(2-hydroxyethanesulfonyl)phenoxy]methyl}-2-methylpyrrolidin-1-yl]-5,6,7,8-tetrahydronaphthalene-2-carbonitrile]	581	43.5
C[C@@H]1C[C@H](COc2ccc(S(=O)(=O)CCO)cc2)CN1C1CCc2ccc(Cl)cc2C1 (stereo partly drawn) [Compound 61, 2-(4-{[(3S,5R)-1-[7-chloro-1,2,3,4-tetrahydronaphthalen-2-yl]-5-methylpyrrolidin-3-yl]methoxy}benzenesulfonyl)ethan-1-ol]	698	63.3
C[C@@H]1C[C@H](COc2ccc(S(C)(=O)=O)nc2)CN1CCc1cccc(C#N)c1 [Compound 64, 3-{2-[(2R,4S)-4-{[(6-methanesulfonylpyridin-3-yl)oxy]methyl}-2-methylpyrrolidin-1-yl]ethyl}benzonitrile]	287	50.9
C[C@@H]1C[C@H](COc2ccc(S(C)(=O)=O)nc2)CN1CCc1cc(Cl)cc(C#N)c1 [Compound 65, 3-chloro-5-{2-[(2R,4S)-4-{[(6-methanesulfonylpyridin-3-yl)oxy]methyl}-2-methylpyrrolidin-1-yl]ethyl}benzonitrile]	346	49.8
CC(=O)N(C)CCS(=O)(=O)c1ccc(OC[C@H]2C[C@@H](C)N(CCc3cc(Cl)cc(C#N)c3)C2)cc1 [Compound 66, N-[2-(4-{[(3S,5R)-1-[2-(3-chloro-5-cyanophenyl)ethyl]-5-methylpyrrolidin-3-yl]methoxy}benzenesulfonyl)ethyl]-N-methylacetamide]	621	76.8
CC(=O)N(C)CCS(=O)(=O)c1ccc(OC[C@H]2C[C@@H](C)N(CCc3cccc(C#N)c3)C2)cc1 [Compound 67, N-[2-(4-{[(3S,5R)-1-[2-(3-cyanophenyl)ethyl]-5-methylpyrrolidin-3-yl]methoxy}benzenesulfonyl)ethyl]-N-methylacetamide]	337	50.3
C[C@@H]1CN(CCc2cccc(C#N)c2)C[C@H]1COc1ccc(S(C)(=O)=NCCS(C)(=O)=O)cc1 (stereo partly drawn) [Compound 68, 3-{2-[(3S,4S)-3-[(4-{[(2-methanesulfonylethyl)imino](methyl)oxo-λ^6-sulfanyl}phenoxy)methyl]-4-methylpyrrolidin-1-yl]ethyl}benzonitrile]	708	366
CN=S(C)(=O)c1ccc(OC[C@@H]2CN(CCc3cccc(C#N)c3)C[C@H]2C)cn1 (stereo partly drawn) [Compound 71, 3-{2-[(3S,4S)-3-methyl-4-[({6-[methyl(methylimino)oxo-λ^6-sulfanyl]pyridin-3-yl}oxy)methyl]pyrrolidin-1-yl]ethyl}benzonitrile]	492	287
C[C@@H]1CN(CCc2cc(C#N)cc(C#N)c2)C[C@H]1COc1ccc(S(C)(=O)=O)nc1 [Compound 74, 5-{2-[(3S,4S)-3-{[(6-methanesulfonylpyridin-3-yl)oxy]methyl}-4-methylpyrrolidin-1-yl]ethyl}benzene-1,3-dicarbonitrile]	479	665
CC(=O)N(C)CCS(=O)(=O)c1ccc(OC[C@@H]2CN(CCc3cc(Cl)cc(C#N)c3)C[C@H]2C)cc1 [Compound 75, N-[2-(4-{[(3S,4S)-1-[2-(3-chloro-5-cyanophenyl)ethyl]-4-methylpyrrolidin-3-yl]methoxy}benzenesulfonyl)ethyl]-N-methylacetamide]	419	70.6
CC(=O)N(C)CCS(=O)(=O)c1ccc(OC[C@@H]2CN(CCc3cccc(C#N)c3)C[C@H]2C)cc1 [Compound 76, N-[2-(4-{[(3S,4S)-1-[2-(3-cyanophenyl)ethyl]-4-methylpyrrolidin-3-yl]methoxy}benzenesulfonyl)ethyl]-N-methylacetamide]	250	222
C[C@@H]1CN(CCc2cc(Cl)cc(C#N)c2)C[C@H]1COc1ccc(C2(S(C)(=O)=O)CC2)cc1 [Compound 77, 3-chloro-5-{2-[(3S,4S)-3-{[4-(1-methanesulfonylcyclopropyl)phenoxy]methyl}-4-methylpyrrolidin-1-yl]ethyl}benzonitrile]	189	176
C[C@@H]1CN(CCc2cc(Cl)cc(C#N)c2)C[C@H]1COc1ccc(C2(S(C)(=O)=O)COC2)cc1 [Compound 78, 3-chloro-5-{2-[(3S,4S)-3-{[4-(3-methanesulfonyloxetan-3-yl)phenoxy]methyl}-4-methylpyrrolidin-1-yl]ethyl}benzonitrile]	114	25.8

Reference: patent US20260055083A1, “APOL1 INHIBITORS AND METHODS OF USE” (Maze Therapeutics, Inc., priority 2022, published 2026)
